Patent US20190211020A1 (Agency for Science, Technology and Research, priority 2012, published 2019)

How the values were obtained:
[1] = biological target: T1, BCR-ABL (Homo sapiens, UniProt P00519); test: Western blot of CrK1 phosphorylation (BCR-ABL activity) in K562 cells; format: cell-based
T1 construct: host or cells: K562; the other entry of the earlier key: BCR (P11274, Breakpoint cluster region protein)
Description: K562 cell line was obtained from the ATCC, and grown in RPMI supplemented with 10% FCS, L-glutamine, and penicillin/streptomycin.
Exponentially growing cells were plated at 2×10^5 cells/ml, and whole cell lysate processed for western blot analysis using antibodies recognizing eIF4E, phospho-eIF4E (Cell signaling Technology),

[2] = test system: nuclear active beta-catenin in BC-CML primary cells; test: Immunofluorescence of nuclear active beta-catenin in BC-CML primary cells; format: cell-based, human
Text: Cord Blood (CB) samples were purchased from the Singapore Cord Blood bank. CML samples were the Singapore General Hospital after signed informed consent under local IRB-approved procedures. MNCs were obtained using Ficoll separation, and CD34^+ cells selected by immunomagnetic beads (Miltenyi Biotech, Germany).
Cells (1×10^5) were cytospun onto glass slides, fixed with 4% paraformaldehye, and stained with mouse monoclonal antibodies against activated β-catenin (clone 8E7, Millipore, UK), or rabbit monoclonal antibodies against phospho-eIF4E S209 (EP2151Y, Abcam, UK). Slides were then stained with either PE-conjugated anti-mouse or FITC-conjugated anti-rabbit antibodies. Images were obtained with the use of a fluorescence microscope (Olympus IX71S1F3) at 40× magnification.

[3] = test system: eIF4E phosphorylation in cerebellar neurons in brain sections; test: Immunoblot of phospho-eIF4E in mouse cerebellar brain slices; conditions: 40 μM CGP57380 or 50 nM ETC7168 for 45 mins
Description: (§1) For biochemical analyses mice were sacrificed by CO2 inhalation, the cerebellum dissected and rapidly placed in a vibratome chamber and sectioned at 300 μm in cold oxygenated aCSF (in mM: 125 NaCl, 2.5 KCl, 1 MgCl2, 2 CaCl2, 1.25 NaH2PO4, 20 Glucose, 26 NaHCO3, 95% O2/5% CO2). Slices obtained were maintained at 33° C. in oxygenated aCSF and treated with 40 μM CGP57380 or 50 nM ETC7168 for 45 mins and tissues were subsequently snap frozen in liquid nitrogen. Tissues were lysed in 25 mM Tris-HCl, 150 mM NaCl, 1% Triton, 0.2% SDS, 5 mM EDTA, 2 mM DTT, 1 mM NaF, 1 mM Na3VO4 containing protease inhibitor cocktail. The soluble fractions were analyzed by immunoblotting with primary antibodies for 24 hrs at 4° C. followed by detection with secondary antibodies for enhanced chemoluminescent detection. […] Behavioral testing was performed using a well-accepted test for autism that consists of quantitative analysis of ultrasonic vocalizations emitted by male mice exposed to females in estrous^75. […] Prior to testing, the estrous cycle of each female mouse was assessed and only females in estrous were kept for testing. […] Subsequently a female in estrous was introduced in the arena, and ultrasonic vocalizations were recorded for 3 min using the Avisoft system (Avisoft Bioacoustics) with a frequency bandwidth of 30 kHz to 100 kHz. The number and length of ultrasonic vocalizations were quantified. […]

[4] = test system: Nlgn3 knock-out mice; test: Ultrasonic vocalization assay in Nlgn3 knock-out mice (autism model); format: in vivo, mouse; conditions: 50 microgram/kg intraperitoneal, 30 h and 5 h before testing
Description: as §1

T1 sequence (P00519 with tags, fused parts or gaps): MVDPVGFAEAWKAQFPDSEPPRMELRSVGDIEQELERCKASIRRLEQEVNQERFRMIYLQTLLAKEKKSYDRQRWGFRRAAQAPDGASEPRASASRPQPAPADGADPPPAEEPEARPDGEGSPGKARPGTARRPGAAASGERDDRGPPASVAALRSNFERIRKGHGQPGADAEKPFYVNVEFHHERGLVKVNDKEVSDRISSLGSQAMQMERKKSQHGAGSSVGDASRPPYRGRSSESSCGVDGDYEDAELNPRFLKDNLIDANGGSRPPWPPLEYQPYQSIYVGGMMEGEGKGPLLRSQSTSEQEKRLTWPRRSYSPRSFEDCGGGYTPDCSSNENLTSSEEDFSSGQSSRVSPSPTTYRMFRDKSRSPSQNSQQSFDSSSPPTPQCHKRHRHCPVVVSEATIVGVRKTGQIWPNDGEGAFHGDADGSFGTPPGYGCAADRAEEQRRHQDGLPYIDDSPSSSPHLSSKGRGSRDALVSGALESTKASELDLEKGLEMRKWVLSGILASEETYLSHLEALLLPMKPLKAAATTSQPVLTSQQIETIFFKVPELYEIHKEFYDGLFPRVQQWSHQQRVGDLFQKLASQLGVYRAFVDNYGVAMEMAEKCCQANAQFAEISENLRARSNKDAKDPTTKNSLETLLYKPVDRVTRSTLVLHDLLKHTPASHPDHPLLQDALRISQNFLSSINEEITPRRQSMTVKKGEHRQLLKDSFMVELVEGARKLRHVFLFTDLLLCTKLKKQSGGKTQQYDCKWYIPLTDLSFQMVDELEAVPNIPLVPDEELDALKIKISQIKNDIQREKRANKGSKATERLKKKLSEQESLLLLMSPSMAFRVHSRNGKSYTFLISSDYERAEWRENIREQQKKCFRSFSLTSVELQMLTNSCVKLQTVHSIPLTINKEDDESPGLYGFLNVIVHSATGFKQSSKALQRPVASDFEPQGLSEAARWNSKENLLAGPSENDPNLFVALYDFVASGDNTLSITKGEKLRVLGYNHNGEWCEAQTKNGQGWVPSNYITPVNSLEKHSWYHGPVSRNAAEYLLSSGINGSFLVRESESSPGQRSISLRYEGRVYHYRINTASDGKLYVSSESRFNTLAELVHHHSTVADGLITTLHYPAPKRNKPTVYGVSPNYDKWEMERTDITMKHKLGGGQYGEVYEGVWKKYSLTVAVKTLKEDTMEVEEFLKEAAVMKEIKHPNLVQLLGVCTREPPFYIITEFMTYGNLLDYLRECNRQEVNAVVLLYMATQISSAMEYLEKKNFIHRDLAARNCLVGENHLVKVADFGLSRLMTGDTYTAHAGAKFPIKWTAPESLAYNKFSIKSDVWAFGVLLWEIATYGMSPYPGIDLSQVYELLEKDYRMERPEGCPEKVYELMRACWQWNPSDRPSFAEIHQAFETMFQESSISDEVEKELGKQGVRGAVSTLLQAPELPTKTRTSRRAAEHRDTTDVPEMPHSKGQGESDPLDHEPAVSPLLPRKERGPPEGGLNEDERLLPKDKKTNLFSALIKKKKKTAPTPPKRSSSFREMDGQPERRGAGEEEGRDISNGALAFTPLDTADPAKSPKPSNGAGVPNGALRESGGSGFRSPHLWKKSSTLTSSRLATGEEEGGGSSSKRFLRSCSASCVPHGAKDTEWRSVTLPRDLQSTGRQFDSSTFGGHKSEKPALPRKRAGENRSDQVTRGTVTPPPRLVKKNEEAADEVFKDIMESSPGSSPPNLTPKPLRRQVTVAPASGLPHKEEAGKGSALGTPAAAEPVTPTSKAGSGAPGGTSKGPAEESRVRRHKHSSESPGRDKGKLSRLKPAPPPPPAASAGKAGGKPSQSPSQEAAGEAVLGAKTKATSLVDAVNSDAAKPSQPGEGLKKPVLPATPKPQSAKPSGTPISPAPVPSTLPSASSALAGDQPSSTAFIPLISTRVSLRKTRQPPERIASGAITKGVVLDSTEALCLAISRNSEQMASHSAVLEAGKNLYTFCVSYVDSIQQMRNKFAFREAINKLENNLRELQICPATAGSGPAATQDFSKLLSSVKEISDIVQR

BCR-ABL activity (phosphorylation of CrK1) in K562 cells [1]: decrease in BCR-ABL activity
Structure (SMILES): N#Cc1ccc(-c2cnc3ccc(-c4ccc(C(=O)N5CCOCC5)cc4)nn23)cc1 [Example 62, 4-(6-(4-(morpholine-4-carbonyl)phenyl)imidazo[1,2-b]pyridazin-3-yl)benzonitrile]
nuclear active beta-catenin in BC-CML primary cells, immunofluorescence [2]: decrease in nuclear beta-catenin accumulation | eIF4E phosphorylation in cerebellar brain sections [3]: inhibit eIF4E phosphorylation | ultrasonic vocalizations of Nlgn3 knock-out male mice (autism-related behavior) [4]: improves autism-relevant behavior | ultrasonic vocalizations of Nlgn3 knock-out male mice (autism-related behavior) ([4]; listed as ETC7168): robust elevation of ultrasonic vocalizations
